Values of other authors as cited in patent publication US20210322464A1 (priority 2020, published 2021).

Conditions: 1000 μg per day, constant syringe pump infusion for 14 days; cited from earlier work

Q: With `O=[Se](O)O` [sodium selenite] as the compound, how does the adverse effects read?
A: No adverse effects
